Assay results taken from BindingDB's records for doi:10.1021/jm960626t (Dupont Pharmaceuticals, 1997).
Where a name gives a salt, the structure may show the parent alone.

These compounds were tested against Integrin alpha-IIb/beta-3 (Homo sapiens, UniProt P08514+P05106) (assay: Inhibition of human platelet aggregation induced by ADP).
Sequence of Integrin alpha-IIb/beta-3 (P05106 27-788 limits assumed): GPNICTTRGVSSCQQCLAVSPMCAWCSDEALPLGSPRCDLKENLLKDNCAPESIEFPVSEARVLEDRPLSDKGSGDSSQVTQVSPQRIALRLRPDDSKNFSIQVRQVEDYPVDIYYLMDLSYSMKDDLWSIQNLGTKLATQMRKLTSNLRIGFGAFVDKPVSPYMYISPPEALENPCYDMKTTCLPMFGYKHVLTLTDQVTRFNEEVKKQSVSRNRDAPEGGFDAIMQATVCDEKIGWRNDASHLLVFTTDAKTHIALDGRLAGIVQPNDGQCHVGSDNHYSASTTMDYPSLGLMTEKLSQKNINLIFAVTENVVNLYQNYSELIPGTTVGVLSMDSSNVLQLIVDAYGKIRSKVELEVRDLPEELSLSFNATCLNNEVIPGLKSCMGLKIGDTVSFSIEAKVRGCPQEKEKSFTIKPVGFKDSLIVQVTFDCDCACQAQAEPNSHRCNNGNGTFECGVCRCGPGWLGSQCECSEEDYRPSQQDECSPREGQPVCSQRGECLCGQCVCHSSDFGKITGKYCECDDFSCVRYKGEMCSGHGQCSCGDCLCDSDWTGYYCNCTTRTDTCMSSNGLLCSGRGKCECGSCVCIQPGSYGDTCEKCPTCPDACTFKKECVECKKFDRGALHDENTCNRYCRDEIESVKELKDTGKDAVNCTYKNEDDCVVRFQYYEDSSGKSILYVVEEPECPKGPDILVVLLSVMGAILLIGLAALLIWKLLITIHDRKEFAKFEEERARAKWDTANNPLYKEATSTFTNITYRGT
Sequence of Integrin alpha-IIb/beta-3 (P08514 32-887 limits assumed): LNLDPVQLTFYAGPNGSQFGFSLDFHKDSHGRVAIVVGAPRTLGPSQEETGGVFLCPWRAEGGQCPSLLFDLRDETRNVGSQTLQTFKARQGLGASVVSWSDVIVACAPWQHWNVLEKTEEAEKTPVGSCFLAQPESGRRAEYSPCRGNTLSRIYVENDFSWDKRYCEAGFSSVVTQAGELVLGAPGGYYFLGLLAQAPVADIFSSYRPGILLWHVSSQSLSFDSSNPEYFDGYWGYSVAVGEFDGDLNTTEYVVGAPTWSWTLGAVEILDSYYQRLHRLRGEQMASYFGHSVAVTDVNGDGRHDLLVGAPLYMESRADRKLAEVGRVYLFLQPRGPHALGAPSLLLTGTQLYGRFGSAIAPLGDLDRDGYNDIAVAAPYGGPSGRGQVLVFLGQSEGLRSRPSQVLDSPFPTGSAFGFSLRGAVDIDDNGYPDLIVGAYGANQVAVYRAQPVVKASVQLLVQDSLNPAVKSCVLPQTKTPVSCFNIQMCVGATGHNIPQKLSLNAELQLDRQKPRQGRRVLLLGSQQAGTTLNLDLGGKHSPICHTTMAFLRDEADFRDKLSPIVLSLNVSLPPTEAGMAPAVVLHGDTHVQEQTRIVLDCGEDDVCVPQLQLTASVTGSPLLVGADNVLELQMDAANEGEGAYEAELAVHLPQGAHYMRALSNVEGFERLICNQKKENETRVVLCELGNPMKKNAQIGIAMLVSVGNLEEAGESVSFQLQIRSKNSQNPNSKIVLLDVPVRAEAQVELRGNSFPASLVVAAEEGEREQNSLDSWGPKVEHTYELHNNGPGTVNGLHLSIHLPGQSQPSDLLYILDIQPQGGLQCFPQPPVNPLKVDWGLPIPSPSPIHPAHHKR
Sequence of Integrin alpha-IIb/beta-3 (P08514 891-1039 limits assumed): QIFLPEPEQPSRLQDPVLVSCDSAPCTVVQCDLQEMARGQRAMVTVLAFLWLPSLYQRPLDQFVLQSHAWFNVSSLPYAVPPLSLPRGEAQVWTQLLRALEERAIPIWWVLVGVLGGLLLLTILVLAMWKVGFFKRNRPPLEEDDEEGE

IC50	SMILES
0.86 µM	N=C(N)c1ccc(C2=NO[C@@H](CC(=O)NCCC(=O)O)C2)cc1
> 100 µM	O=C(O)CCNC(=O)CC1CC(CC2CCNCC2)=NO1 (configuration not stated) [3-[2-(3-Piperidin-4-ylmethyl-4,5-dihydro-isoxazol-5-yl)-acetylamino]-propionic acid]
0.63 µM	O=C(O)CCNC(=O)CC1CC(CCC2CCNCC2)=NO1 (configuration not stated) [3-{2-[3-(2-Piperidin-4-yl-ethyl)-4,5-dihydro-isoxazol-5-yl]-acetylamino}-propionic acid]
0.06 µM	N=C(N)c1ccc(C2=NO[C@H](CC(=O)NCCC(=O)O)C2)cc1 [3-{2-[(S)-3-(4-Carbamimidoyl-phenyl)-4,5-dihydro-isoxazol-5-yl]-acetylamino}-propionic acid; TFA]
18 µM	O=C(O)CCC1CC(c2ccc(OCC3CCNCC3)cc2)=NO1 (configuration not stated) [3-{3-[4-(Piperidin-4-ylmethoxy)-phenyl]-4,5-dihydro-isoxazol-5-yl}-propionic acid]
23 µM	O=C(NC(C(=O)O)C1CC(c2ccc(OCCC3CCNCC3)cc2)=NO1)OCc1ccccc1 (configuration not stated) [Benzyloxycarbonylamino-{3-[4-(2-piperidin-4-yl-ethoxy)-phenyl]-4,5-dihydro-isoxazol-5-yl}-acetic acid]
8.3 µM	O=C(O)CC1CC(c2ccc(OCCC3CCNCC3)cc2)=NO1 (configuration not stated) [{3-[4-(2-Piperidin-4-yl-ethoxy)-phenyl]-4,5-dihydro-isoxazol-5-yl}-acetic acid]
